{"source": "patent US11932870B2", "about": "“Compositions and methods for immune cell modulation in adoptive immunotherapies” (Fate Therapeutics, Inc., priority 2016, dated 2024)", "key": {"[1]": {"system": "CD8 T cells transduced with CAR Construct 1", "assay": "Tcm phenotype skewing of CAR-T cells (CD62L, CCR7, CD27 surface expression)", "format": "cell-based, human", "conditions": "flow cytometry day 8", "experimental": "(§1) Culturing cells in large-scale for phenotypic and exhaustion marker evaluation. Isolated CD8 T cells were activated in bulk on day 0 using anti-CD3/anti-CD28 beads in T cell media supplemented with IL-2. On day 1, cells were transduced with the CAR Construct and cell density was adjusted to 0.5×10^6/ml and 10^6 cells were seeded into 12-well plates in the presence of vehicle, TWS119, or DCC-2036. On day 4, cells were transferred into 6-well plates and 2 ml of T cell media was added to each well. On day 6 another 2 ml of media was added to each well. On day 8, CAR T cells were analyzed on a flow cytometer for surface expression of phenotypic markers (CD62L, CCR7, and CD27) and exhaustion markers (PD-1 and Tim-3).\nTo determine the effect of compound treatment on skewing towards a central memory phenotype, isolated CD8 T cells were activated in bulk on day 0 using anti-CD3/anti-CD28 beads in T cell media supplemented with IL-2. On day 1, cells were transduced with the CAR Construct 1 shown in FIG. 2 and cell density was adjusted to 0.5×10^6/ml and 10^6 cells were seeded into 12 well plates in the presence of vehicle (DMSO), TWS119 or DCC-2036 at the same concentrations. On day 4, cells were transferred into 6-well plates and 2 ml of media was added to each well. On day 6 another 2 ml of media was added to each well. On day 8, cells were analyzed on a flow cytometer for cell surface expression of CD27.\nThe expression of CD27 observed with vehicle treatment was defined as an MFI (mean fluorescence intensity) of 1 and the relative MFI of cells treated with compound was calculated."}, "[2]": {"system": "CAR-T cells co-cultured with irradiated K562 tumor cells that express CD19", "assay": "In vitro serial killing/re-stimulation assay", "format": "cell-based, human", "conditions": "relative to vehicle; FIG. 3C", "from_the_text": "An informative clinical parameter that can in some contexts be indicative of likelihood of successful adoptive cell therapy in clinical trials is the ability and extent of expansion of the transferred cells in the patient post-treatment and/or persistence and continued function following initial expansion, e.g., in the context of continued exposure to antigen. The ability of engineered T cells to persist and continue expanding over multiple rounds of antigen stimulation can be indicative of such features and/or likelihood of in vivo function or clinical response. An in vitro serial killing/re-stimulation assay, where the T cells treated by each compound were evaluated for various functions, including expansion and ability to kill tumor cells expressing the target antigen in vitro over multiple rounds of exposure to and withdrawal from antigen, was used as a model system. Such assays were carried out on cells treated with or without compounds, to assess the impact of individual compounds on cell function after repeated encounter with antigen, and cell expansion or persistence in such contexts.\nCD8 T cells were activated, transduced, and expanded in the presence of DMSO, TWS119, or DCC-2036. At the end of the expansion, the CAR-T cells were cryopreserved. The serial re-stimulation assay was performed by thawing the CAR-T cells and co-culturing with irradiated K562 tumor cells that express CD19, the antigen recognized by the CAR. Prior to starting each round of killing, cell numbers were adjusted so that CAR-T cell numbers were substantially the same from the cultures generated with DMSO, TWS119, and DCC-2036 treatment respectively. An equal number of irradiated CD19-expressing K562 target cells were added to the different CAR-T cultures."}, "[3]": {"system": "CD8 CAR-T cells", "assay": "Exhaustion marker expression (PD-1, Tim-3) on CD8 CAR-T cells", "format": "cell-based, human", "experimental": "as §1\nTo determine the effect of compound treatment of CAR-T cells on exhaustion marker expression, cells from three different donors were prepared and treated as described in the protocol above. PD-1 and Tim-3 expression was determined using flow cytometry. […] Tim-3 expression was reduced 2-fold with TWS119, and 3.7-fold with DCC-2036 treatment (FIG. 6A)."}, "[4]": {"system": "Nalm-6-luc tumor cells", "assay": "In vivo tumor clearance by compound-treated CD19 CAR-T cells", "conditions": "NSG mice with Nalm-6-luc; 2.0×10^5 cryopreserved compound-treated CAR-T cells per animal (1:1 CD4:CD8); imaging; FIGS. 7 and 8", "experimental": "NSG mice were injected with Nalm-6-luc, a CD19+ human tumor line engineered to express firefly luciferase. CAR-T cells were generated from CD4+ and CD8+ T cells that were separately activated and expanded in vitro. The cells were transduced with the CAR-2 construct (FIG. 2) one day after activation and then replated into 24-well GREX plates with or without the compounds. Half the media was replaced every two days thereafter until harvest one week post-activation. Cells were cryopreserved and then thawed for use. NSG mice were infused with tumor cells followed […] by CAR-T transfer via retroorbital injection. Four days after IV. injection with Nalm-6-luc cells, mice were treated with 2.0×10^5 CAR-T cells per animal (1:1 CD4:CD8). The mice were imaged periodically to determine tumor burden."}}}
{"smiles": "Nc1cccc(-c2cc3c(Oc4cccc(O)c4)ncnc3[nH]2)c1", "note": "[TWS119]", "values": [{"measurement": "increase in the frequency of CAR-T cells expressing both CD62L and CCR7", "setting": "[1]; relative to vehicle (DMSO), FIG. 4A", "value": 1.7, "unit": "fold"}, {"measurement": "increase in the expression of the differentiation marker CD27 (relative MFI)", "setting": "[1]; relative to vehicle (MFI defined as 1), FIG. 4B", "value": "did not have an effect"}, {"measurement": "cell number expansion of CAR-T cells in rounds 3 and 4 of the serial re-stimulation assay", "setting": "[2]", "value": "modest increase in expansion relative to vehicle"}, {"measurement": "expression of T cell exhaustion marker Tim-3", "setting": "[3]; CD8 T cells at one week post activation, relative to DMSO, FIG. 6A", "value": "reduced expression"}, {"measurement": "expression of T cell exhaustion marker PD-1", "setting": "[3]; CD8 T cells at one week post activation, relative to DMSO, FIG. 6B", "value": "reduced expression"}, {"measurement": "reduction of Tim-3 expression", "setting": "[3]; relative to vehicle, three donors, FIG. 6A", "value": 2, "unit": "fold"}, {"measurement": "decrease in PD-1 surface expression", "setting": "[3]; relative to vehicle, three donors, FIG. 6B", "value": 3.3, "unit": "fold"}, {"measurement": "tumor burden / tumor control", "setting": "[4]", "value": "minimal tumor control"}]}
